Tests used:
Assay in all cases: cells
Design in all cases: species or system panel of human cancer cell lines; Eurofins OncoPanel proliferation; nuclei count by high-content fluorescence imaging, 10-point dose response
A431 = conditions: Homo sapiens, A-431, 72 h, cell count, 3 days
Description: (§1) OncoPanel cancer cell proliferation assay was performed by Eurofins Panlabs, Inc. (Missouri, USA). Cancer cells were grown in RPMI 1640, 10% FBS, 2 mM L-alanyl-L-glutamine, 1 mM Na pyruvate, or a special medium. Cells were seeded into 384-well plates and incubated in a humidified atmosphere of 5% CO2 at 37°C. Compounds were added the day following cell seeding. At the same time, a time zero untreated cell plate was generated. After a 3-day incubation period, cells were fixed and stained to allow fluorescence imaging of nuclei. Levosimendan was serially diluted in half-log steps from 100 μM and assayed over 10 concentrations with a maximum assay concentration of 0.1% DMSO. Automated fluorescence microscopy was carried out using a Molecular Devices ImageXpress Micro XL high-content imager, and images were collected with a 4X objective. 16-bit TIFF images were acquired and analyzed with MetaXpress 5.1.0.41 software. Cell count EC50 is the test concentration at the curve inflection point (parameter C), or half the effective response. IC50 is the test compound concentration at 50% of the maximum possible response. GI50 is the concentration needed to reduce the observed growth by half (midway between the relative cell count at the curve maximum and at the time of compound addition). Activity area is an estimate of the integrated area above the response curve. Activity area values range from 0–10, where a value of zero indicates no inhibition of proliferation at all concentrations, and a value of 10 indicates complete inhibition of proliferation at all concentrations.

ARH-77 = conditions: Homo sapiens, ARH-77, 72 h, cell count, 3 days
Description: as §1

CCRFCEM = conditions: Homo sapiens, CCRF-CEM, 72 h, cell count, 3 days
Description: as §1

CEM-C1 = conditions: CEM/C1, 72 h, cell count, 3 days
Description: as §1

G-401 = conditions: Homo sapiens, G-401, 72 h, cell count, 3 days
Description: as §1

HT-1080 = conditions: Homo sapiens, HT-1080, 72 h, cell count, 3 days
Description: as §1

Hs 683 = conditions: Homo sapiens, Hs 683, 72 h, cell count, 3 days
Description: as §1

HuCCT1 = conditions: Homo sapiens, HuCCT-1, 72 h, cell count, 3 days
Description: as §1

JEG-3 = conditions: Homo sapiens, JEG-3, 72 h, cell count, 3 days
Description: as §1

JeKo-1 = conditions: Homo sapiens, JeKo-1, 72 h, cell count, 3 days
Description: as §1

RD = conditions: Homo sapiens, RD, 72 h, cell count, 3 days
Description: as §1

ST486 = conditions: Homo sapiens, ST486, 72 h, cell count, 3 days
Description: as §1

SW900 = conditions: Homo sapiens, SW900, 72 h, cell count, 3 days
Description: as §1

SaOS2 = conditions: Homo sapiens, SAOS-2, 72 h, cell count, 3 days
Description: as §1

[1] = 50% of maximum possible response

IC50 (A431; [1]): 44.9 µM
GI50 (A431; corrected for time zero): 42.8 µM
EC50 (A431; curve inflection point): 44.9 µM
IC50 (CCRFCEM; [1]): 35.5 µM
GI50 (CCRFCEM; corrected for time zero): 28.5 µM
EC50 (CCRFCEM; curve inflection point): 35.5 µM
IC50 (HT-1080; [1]): 11.7 µM
GI50 (HT-1080; corrected for time zero): 10.9 µM
EC50 (HT-1080; curve inflection point): 11.7 µM
IC50 (SW900; [1]): 67.6 µM
GI50 (SW900; corrected for time zero): 35.9 µM
EC50 (SW900; curve inflection point): 67.6 µM
Compound: C[C@@H]1CC(=O)NN=C1c1ccc(NN=C(C#N)C#N)cc1 [levosimendan]
IC50 (ARH-77; [1]): 20.3 µM
GI50 (ARH-77; corrected for time zero): 16 µM
EC50 (ARH-77; curve inflection point): 19.3 µM
IC50 (CEM-C1; [1]): 22.5 µM
GI50 (CEM-C1; corrected for time zero): 18.8 µM
EC50 (CEM-C1; curve inflection point): 22.5 µM
IC50 (G-401; [1]): 5.47 µM
GI50 (G-401; corrected for time zero): 4.83 µM
EC50 (G-401; curve inflection point): 5.34 µM
IC50 (Hs 683; [1]): > 100 µM
GI50 (Hs 683; corrected for time zero): > 100 µM
EC50 (Hs 683; curve inflection point): 51.2 µM
IC50 (HuCCT1; [1]): 27.5 µM
GI50 (HuCCT1; corrected for time zero): 24.8 µM
EC50 (HuCCT1; curve inflection point): 25.4 µM
IC50 (JEG-3; [1]): 30.5 µM
GI50 (JEG-3; corrected for time zero): 25.6 µM
EC50 (JEG-3; curve inflection point): 30.5 µM
IC50 (JeKo-1; [1]): 24.7 µM
GI50 (JeKo-1; corrected for time zero): 20.9 µM
EC50 (JeKo-1; curve inflection point): 24.6 µM
IC50 (RD; [1]): 20.6 µM
GI50 (RD; corrected for time zero): 15.7 µM
EC50 (RD; curve inflection point): 20.6 µM
IC50 (ST486; [1]): 8.16 µM
GI50 (ST486; corrected for time zero): 6.04 µM
EC50 (ST486; curve inflection point): 8.16 µM
IC50 (SaOS2; [1]): 54.5 µM
GI50 (SaOS2; corrected for time zero): 35.7 µM
EC50 (SaOS2; curve inflection point): 54.5 µM

Reference: publication PMC6576746, “Rational discovery of dual-indication multi-target PDE/Kinase inhibitor for precision anti-cancer therapy using structural systems pharmacology” (PLoS Computational Biology, 2019)
